Reference: ChEMBL document CHEMBL1157034, “Synthesis of 1-benzyl-3-(5-hydroxymethyl-2-furyl)selenolo[3,2-c]pyrazole derivatives as new anticancer agents” (Eur J Med Chem, 2010)

Columns and labels:
Format in all cases: functional
HCC 2998 = experiment: Antitumor activity against human HCC2998 cells after 48 hrs by MTT assay; settings: HCC 2998, 48 h
UACC-62 = experiment: Antitumor activity against human UACC62 cells after 48 hrs by MTT assay; settings: UACC-62, 48 h
SNB-19 = experiment: Antitumor activity against human SNB19 cells after 48 hrs by MTT assay; settings: SNB-19, 48 h
HCT-15 = experiment: Antitumor activity against human HCT15 cells after 48 hrs by MTT assay; settings: HCT-15, 48 h
NCI-H23 = experiment: Antitumor activity against human NCI-H23 cells after 48 hrs by MTT assay; settings: NCI-H23, 48 h
SK-OV-3 = experiment: Antitumor activity against human SKOV3 cells after 48 hrs by MTT assay; settings: SK-OV-3, 48 h
SK-MEL-2 = experiment: Antitumor activity against human SK-MEL-2 cells after 48 hrs by MTT assay; settings: SK-MEL-2, 48 h
NCI-H460 = experiment: Antitumor activity against human NCI-H460 cells after 48 hrs by MTT assay; settings: NCI-H460, 48 h
PC-3 = experiment: Antitumor activity against human PC3 cells after 48 hrs by MTT assay; settings: PC-3, 48 h
[1] = Antitumor activity against human Hs 578T cells after 48 hrs by MTT assay
NCI-H322M = experiment: Antitumor activity against human NCI-H322M cells after 48 hrs by MTT assay
HOP-92 = experiment: Antitumor activity against human HOP92 cells after 48 hrs by MTT assay; settings: HOP-92, 48 h
COLO 205 = experiment: Antitumor activity against human COLO205 cells after 48 hrs by MTT assay; settings: COLO 205, 48 h
HT-29 = experiment: Antitumor activity against human HT-29 cells after 48 hrs by MTT assay; settings: HT-29, 48 h
DU-145 = experiment: Antitumor activity against human DU145 cells after 48 hrs by MTT assay; settings: DU-145, 48 h
KM12 = experiment: Antitumor activity against human KM12 cells after 48 hrs by MTT assay; settings: KM12, 48 h
SK-MEL-5 = experiment: Antitumor activity against human SK-MEL-5 cells after 48 hrs by MTT assay; settings: SK-MEL-5, 48 h
OVCAR-3 = experiment: Antitumor activity against human OVCAR-3 cells after 48 hrs by MTT assay; settings: OVCAR-3, 48 h
UACC-257 = experiment: Antitumor activity against human UACC257 cells after 48 hrs by MTT assay; settings: UACC-257, 48 h
HOP-62 = experiment: Antitumor activity against human HOP62 cells after 48 hrs by MTT assay; settings: HOP-62, 48 h
OVCAR-8 = experiment: Antitumor activity against human OVCAR8 cells after 48 hrs by MTT assay; settings: OVCAR-8, 48 h
OVCAR-4 = experiment: Antitumor activity against human OVCAR4 cells after 48 hrs by MTT assay; settings: OVCAR-4, 48 h
NCI/ADR-RES = experiment: Antitumor activity against human NCI/ADR-RES cells after 48 hrs by MTT assay
MDA-MB-435 = experiment: Antitumor activity against human MDA-MB-435 cells after 48 hrs by MTT assay; settings: MDA-MB-435, 48 h
[2] = read-out: pLC50 (the source's name) (converted)

SMILES: OCc1ccc(-c2nn(Cc3ccccc3)c3cc[se]c23)o1
- GI50 (HCC 2998): 32.4 µM
- CC50 (HCC 2998; [2]): > 100 µM
- TGI (HCC 2998; read-out: pTGI): > 100 µM
- GI50 (UACC-62): 2.19 µM
- CC50 (UACC-62; [2]): > 100 µM
- TGI (UACC-62; read-out: pTGI (converted)): 55 µM
- GI50 (SNB-19): 49 µM
- CC50 (SNB-19; [2]): > 100 µM
- TGI (SNB-19; read-out: pTGI): > 100 µM
- GI50 (HCT-15): 30.2 µM
- CC50 (HCT-15; [2]): > 100 µM
- TGI (HCT-15; read-out: pTGI): > 100 µM
- GI50 (NCI-H23): 42.7 µM
- CC50 (NCI-H23; [2]): > 100 µM
- TGI (NCI-H23; read-out: pTGI): > 100 µM
- GI50 (SK-OV-3; read-out: pGI50 (converted)): 46.8 µM
- CC50 (SK-OV-3; [2]): > 100 µM
- TGI (SK-OV-3; read-out: pTGI): > 100 µM
- GI50 (SK-MEL-2): 35.5 µM
- CC50 (SK-MEL-2; [2]): > 100 µM
- TGI (SK-MEL-2; read-out: pTGI): > 100 µM
- GI50 (NCI-H460): 28.2 µM
- CC50 (NCI-H460; [2]): > 100 µM
- TGI (NCI-H460; read-out: pTGI): > 100 µM
- GI50 (PC-3; read-out: pGI50 (converted)): 27.5 µM
- CC50 (PC-3; [2]): > 100 µM
- TGI (PC-3; read-out: pTGI): > 100 µM
- GI50 [1]: 20 µM
- CC50 [1, 2]: > 100 µM
- TGI ([1]; read-out: pTGI (converted)): 74.1 µM
- GI50 (NCI-H322M): 40.7 µM
- CC50 (NCI-H322M; [2]): > 100 µM
- TGI (NCI-H322M; read-out: pTGI): > 100 µM
- GI50 (HOP-92): 18.2 µM
- CC50 (HOP-92; [2]): > 100 µM
- TGI (HOP-92; read-out: pTGI (converted)): 79.4 µM
- GI50 (COLO 205): 29.5 µM
- CC50 (COLO 205; [2]): > 100 µM
- TGI (COLO 205; read-out: pTGI): > 100 µM
- GI50 (HT-29): 33.9 µM
- CC50 (HT-29; [2]): > 100 µM
- TGI (HT-29; read-out: pTGI): > 100 µM
- GI50 (DU-145; read-out: pGI50 (converted)): 45.7 µM
- CC50 (DU-145; [2]): > 100 µM
- TGI (DU-145; read-out: pTGI): > 100 µM
- GI50 (KM12): 49 µM
- CC50 (KM12; [2]): > 100 µM
- TGI (KM12; read-out: pTGI): > 100 µM
- GI50 (SK-MEL-5): 31.6 µM
- CC50 (SK-MEL-5; [2]): > 100 µM
- TGI (SK-MEL-5; read-out: pTGI (converted)): 89.1 µM
- GI50 (OVCAR-3): 13.2 µM
- CC50 (OVCAR-3; [2]): > 100 µM
- TGI (OVCAR-3; read-out: pTGI (converted)): 79.4 µM
- GI50 (UACC-257): 18.2 µM
- CC50 (UACC-257; [2]): > 97.7 µM
- TGI (UACC-257; read-out: pTGI (converted)): 41.7 µM
- GI50 (HOP-62): 39.8 µM
- CC50 (HOP-62; [2]): > 100 µM
- TGI (HOP-62; read-out: pTGI): > 100 µM
- GI50 (OVCAR-8; read-out: pGI50 (converted)): 55 µM
- CC50 (OVCAR-8; [2]): > 100 µM
- TGI (OVCAR-8; read-out: pTGI): > 100 µM
- GI50 (OVCAR-4): 26.3 µM
- CC50 (OVCAR-4; [2]): > 100 µM
- TGI (OVCAR-4; read-out: pTGI): > 100 µM
- GI50 (NCI/ADR-RES; read-out: pGI50 (converted)): 25.7 µM
- CC50 (NCI/ADR-RES; [2]): > 100 µM
- TGI (NCI/ADR-RES; read-out: pTGI): > 100 µM
- GI50 (MDA-MB-435): 23.4 µM
- CC50 (MDA-MB-435; [2]): > 100 µM
- TGI (MDA-MB-435; read-out: pTGI (converted)): 75.9 µM
